These compounds were tested on Rattus norvegicus (assay: Antihypertensive activity in spontaneously hypertensive rats, measured as average blood pressure at 100 mg/kg, p.o. before predose; No significant lowering of blood pressure).
Type: functional, organism-based
Parameters: dose 100 mg/kg

Row | Structure (SMILES) | BP
1 | O=S(=O)(c1ccccc1)c1c(O)nnc(-c2ccccc2)c1-c1ccccc1 | Not significant
2 | COc1ccc(-c2c(O)nnc(-c3ccccc3)c2-c2ccccc2)cc1 | Not significant
3 | N#Cc1c(O)nnc(-c2ccccc2Cl)c1-c1ccccc1Cl | Not significant
4 | COc1cccc(-c2c(-c3ccccc3)c(-c3ccccc3)nn(CCO)c2=O)c1 | Not significant
5 | COc1ccc(-c2nn(CCO)c(=O)c(C(C)=O)c2-c2ccc(OC)cc2)cc1 | Not significant
6 | O=c1cc(-c2ccc(Cl)cc2)c(-c2ccc(Cl)cc2)nn1CCO | Not significant
7 | CC(=O)c1c(-c2ccc(Cl)cc2)c(-c2ccc(Cl)cc2)nn(CCCl)c1=O | Not significant
8 | CC(=O)c1c(-c2ccc(O)cc2)c(-c2ccc(O)cc2)nn(CC[n+]2ccccc2)c1=O | Not significant
9 | CCOC(=O)CCCn1nc(-c2ccccc2)c(-c2ccccc2)c(C(C)=O)c1=O | Not significant
10 | Cc1ccc(-c2c(O)nnc(-c3ccccc3)c2-c2ccccc2)cc1 | Not significant
11 | Oc1nnc(-c2ccccc2)c(-c2ccccc2)c1-c1cccc(Cl)c1 | Not significant
12 | CCOC(=O)NCCn1nc(-c2ccc(Cl)cc2)c(-c2ccc(Cl)cc2)c(C(C)=O)c1=O | Not significant
13 | COC(=O)Cn1nc(-c2ccc(Cl)cc2)c(-c2ccc(Cl)cc2)c(C#N)c1=O | Not significant
14 | COc1ccccc1-c1c(O)nnc(-c2ccccc2)c1-c1ccccc1 | Not significant
15 | CC(=O)c1c(-c2ccc(OCc3ccccc3)cc2)c(-c2ccc(OCc3ccccc3)cc2)nn(CCO)c1=O | Not significant
16 | O=C(O)c1c(-c2ccc(Cl)cc2)c(-c2ccc(Cl)cc2)nn(CCO)c1=O | Not significant
17 | CC(=O)c1c(-c2ccc(Cl)cc2)c(-c2ccc(Cl)cc2)nn(CC(O)CNC(C)C)c1=O (stereo not given) | Not significant
18 | CC(=O)c1c(-c2ccccc2)c(-c2ccccc2)nn(C)c1=O | Not significant
19 | COc1ccc(OC)c(-c2c(O)nnc(-c3ccccc3)c2-c2ccccc2)c1 | Not significant
20 | O=C(O)c1c(O)nnc(-c2ccc(Cl)cc2)c1-c1ccc(Cl)cc1 | Not significant
21 | CCOC(=O)Cn1nc(-c2ccc(OC)cc2)c(-c2ccc(OC)cc2)c(C(C)=O)c1=O | Not significant
22 | C=Cn1nc(-c2ccc(Cl)cc2)c(-c2ccc(Cl)cc2)c(C(C)=O)c1=O | Not significant

Row | Structure (SMILES) | BP
23 | CC(=O)c1c(O)nnc(-c2ccc(F)cc2)c1-c1ccc(F)cc1 | Not significant
24 | COc1ccccc1-c1c(-c2ccccc2)c(-c2ccccc2)nn(CCO)c1=O | Not significant
25 | COC(=O)Cn1nc(-c2ccc(Cl)cc2)c(-c2ccc(Cl)cc2)c(C(C)=O)c1=O | Not significant
26 | O=C(c1ccccc1)c1c(-c2ccccc2)c(-c2ccccc2)nn(CCO)c1=O | Not significant
27 | CC(=O)c1c(-c2ccc(Cl)cc2)c(-c2ccc(Cl)cc2)nn(CCCCCO)c1=O | Not significant
28 | CC(=O)c1c(O)nnc(-c2ccccc2)c1-c1ccccc1 | Not significant
29 | CC(=O)c1c(-c2ccc(Cl)cc2)c(-c2ccc(Cl)cc2)nn(CC(C)O)c1=O (stereo not given) | Not significant
30 | COc1ccc(-c2nnc(O)c(C(C)=O)c2-c2ccc(OC)cc2)cc1 | Not significant
31 | N#Cc1c(O)nnc(-c2ccc(Cl)c(Cl)c2)c1-c1ccc(Cl)c(Cl)c1 | Not significant
32 | CC(=O)c1c(O)nnc(-c2ccc(Cl)cc2)c1-c1ccc(Cl)cc1 | Not significant
33 | Oc1nnc(-c2ccccc2)c(-c2ccccc2)c1-c1ccc(Br)cc1 | Not significant
34 | O=c1c(-c2cccc(Cl)c2)c(-c2ccccc2)c(-c2ccccc2)nn1CCO | Not significant
35 | CC(=O)c1c(-c2ccc(Cl)cc2)c(-c2ccc(Cl)cc2)nn(CC[N+](C)(C)C)c1=O | Not significant
36 | CC(=O)c1c(-c2ccc(Cl)cc2)c(-c2ccc(Cl)cc2)nn(CCCN(C)C)c1=O | Not significant
37 | O=C(O)CCCn1nc(-c2ccccc2)c(-c2ccccc2)c(-c2ccccc2)c1=O | Not significant
38 | CC(=O)c1c(-c2ccc(Cl)cc2)c(-c2ccc(Cl)cc2)nn(CCN2C(=O)c3ccccc3C2=O)c1=O | Not significant
39 | N#Cc1c(-c2ccccc2Cl)c(-c2ccccc2Cl)nn(CCO)c1=O | Not significant
40 | N#Cc1c(-c2ccc(Cl)c(Cl)c2)c(-c2ccc(Cl)c(Cl)c2)nn(CCO)c1=O | Not significant
41 | CCOC(=O)CCCn1nc(-c2ccc(Cl)cc2)c(-c2ccc(Cl)cc2)c(C#N)c1=O | Not significant
42 | COc1ccc(-c2c(-c3ccccc3)c(-c3ccccc3)nn(CCO)c2=O)cc1OC | Not significant
43 | N#Cc1c(-c2ccc(Cl)cc2)c(-c2ccc(Cl)cc2)nn(CCCl)c1=O | Not significant
44 | CC(C)C(=O)c1c(-c2ccc(Cl)cc2)c(-c2ccc(Cl)cc2)nn(CCO)c1=O | Not significant

Row | Structure (SMILES) | BP
45 | CC(=O)c1c(-c2ccc(Cl)cc2)c(-c2ccc(Cl)cc2)nn(CC2CO2)c1=O (stereo not given) | Not significant
46 | O=c1c(-c2ccc3ccccc3c2)c(-c2ccccc2)c(-c2ccccc2)nn1CCO | Not significant
47 | CC(=O)Nc1ccc(-c2c(-c3ccc(Cl)cc3)c(-c3ccc(Cl)cc3)nn(CCO)c2=O)cc1 | Not significant
48 | CC(=O)c1c(-c2ccc(Cl)cc2)c(-c2ccc(Cl)cc2)nn(CCI)c1=O | Not significant
49 | O=c1c(-c2ccccc2)c(-c2ccc(Cl)cc2)c(-c2ccc(Cl)cc2)nn1CCO | Not significant
50 | Cc1ccc(-c2nn(CCO)c(=O)c(-c3ccccc3)c2-c2ccc(C)cc2)cc1 | Not significant
51 | Oc1nnc(-c2ccccc2)c(-c2ccccc2)c1-c1ccc(Cl)cc1 | Not significant
52 | CC(=O)c1c(-c2ccc(O)cc2)c(-c2ccc(O)cc2)nn(CCO)c1=O | Not significant
53 | CCCC(=O)c1c(-c2ccc(Cl)cc2)c(-c2ccc(Cl)cc2)nn(C(C)CO)c1=O (stereo not given) | Not significant
54 | C/C(=N\N)c1c(O)nnc(-c2ccccc2)c1-c1ccccc1 | Not significant
55 | O=c1c(-c2ccc(Br)cc2)c(-c2ccccc2)c(-c2ccccc2)nn1CCO | Not significant
56 | Cn1nc(-c2ccccc2)c(-c2ccccc2)c(C#N)c1=O | Not significant
57 | Cc1ccc(-c2nnc(O)c(C#N)c2-c2ccc(C)cc2)cc1 | Not significant
58 | COc1ccc(-c2c(-c3ccccc3)c(-c3ccccc3)nn(CCO)c2=O)cc1 | Not significant
59 | COc1cc(-c2c(O)nnc(-c3ccc(Cl)cc3)c2-c2ccc(Cl)cc2)cc(OC)c1OC | Not significant
60 | CCC(=O)c1c(-c2ccc(Cl)cc2)c(-c2ccc(Cl)cc2)nn(CCO)c1=O | Not significant
61 | CC(=O)c1c(-c2ccc(Cl)cc2)c(-c2ccc(Cl)cc2)nn(CC(O)CCl)c1=O (stereo not given) | Not significant
62 | CC(=O)c1c(-c2ccc(Cl)cc2)c(-c2ccc(Cl)cc2)nn(CCCCCCN2C(=O)c3ccccc3C2=O)c1=O | Not significant
63 | N#Cc1c(-c2ccc(F)cc2)c(-c2ccc(F)cc2)nn(CCO)c1=O | Not significant
64 | CCn1nc(-c2ccc(Cl)cc2)c(-c2ccc(Cl)cc2)c(C(C)=O)c1=O | Not significant
65 | CC(=O)c1c(-c2ccccc2)c(-c2ccccc2)nn(CCCC(=O)O)c1=O | Not significant
